Assay [1] deals with Nicotinamide phosphoribosyltransferase (Homo sapiens, UniProt P43490). The experiment in a line: Inhibition of human Nampt using NAM as substrate after 15 mins by fluorometric method.
The nature of assay [2]: Cytotoxicity against human HCT116 cells after 72 hrs by MTT assay. The settings on record: HCT-116, 72 h. The class given is functional, cell-based.
The next assay has as its system MDA-MB-231. The experiment in a line: Cytotoxicity against human MDA-MB-231 cells after 72 hrs by MTT assay. The assay is classed as functional, cell-based. To be noted: MDA-MB-231, 72 h.
The subject of assay [3] is HepG2. Kind of assay: Cytotoxicity against human HepG2 cells after 72 hrs by MTT assay. The class given is functional, cell-based. The settings on record: HepG2, 72 h.
For assay [4], the system named is HepG2. The experiment in a line: Induction of apoptosis in human HepG2 cells assessed as necrotic cells level at 5 uM after 48 hrs using annexin VFITC/propidium iodide staining by flow cytometry (reference value: 4.09%). The assay is classed as functional.
Assay [5] deals with HepG2. The experiment in a line: Induction of apoptosis in human HepG2 cells assessed as late apoptotic cells level at 5 uM after 48 hrs using annexin VFITC/propidium iodide staining by flow cytometry (reference value: 2.85%). The class given is functional.
In assay [6] the test system is HepG2. Kind of assay: Induction of apoptosis in human HepG2 cells assessed as early apoptotic cells level at 5 uM after 48 hrs using annexin VFITC/propidium iodide staining by flow cytometry (reference value: 2.84%). The class given is functional.

Results on 14 compounds are retold here after ChEMBL document CHEMBL3751770, “Identification of benzothiophene amides as potent inhibitors of human nicotinamide phosphoribosyltransferase” (Bioorg Med Chem Lett, 2016).

Chain of Nicotinamide phosphoribosyltransferase (P43490 whole entry): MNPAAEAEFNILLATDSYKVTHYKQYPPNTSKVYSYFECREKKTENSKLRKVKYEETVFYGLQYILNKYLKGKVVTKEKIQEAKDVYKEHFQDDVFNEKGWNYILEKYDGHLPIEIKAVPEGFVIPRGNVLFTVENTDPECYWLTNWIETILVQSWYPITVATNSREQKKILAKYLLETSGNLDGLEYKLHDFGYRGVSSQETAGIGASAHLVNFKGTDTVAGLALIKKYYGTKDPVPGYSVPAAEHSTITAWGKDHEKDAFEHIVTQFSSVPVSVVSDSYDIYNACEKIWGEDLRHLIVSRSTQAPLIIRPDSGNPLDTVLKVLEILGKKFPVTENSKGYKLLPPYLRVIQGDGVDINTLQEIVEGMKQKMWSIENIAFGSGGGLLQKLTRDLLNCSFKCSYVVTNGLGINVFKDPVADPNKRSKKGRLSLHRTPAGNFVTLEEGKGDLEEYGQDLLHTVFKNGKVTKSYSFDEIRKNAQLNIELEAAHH

For the compound `COc1ccc(CCNC(=O)c2ccc(C)s2)cc1OC`, the half-inhibitory concentration (IC50) in assay [1] was 860 nM; in assay [2], above 307 µM; in the assay with MDA-MB-231 it was above 307 µM; in the assay with HepG2 [3], above 307 µM.

As for `Cc1ccsc1C(=O)NCCCn1ccnc1`, the concentration for half-maximal inhibition (IC50) in assay [1] was above 10000 nM; in assay [2] it was 198 µM; with MDA-MB-231 it was above 276 µM; in the assay with HepG2 [3], 102 µM.

As for `O=C(NCCCn1ccnc1)c1ccc([N+](=O)[O-])s1`, the IC50 was above 10000 nM in assay [1], above 390 µM in assay [2], above 390 µM in the assay with MDA-MB-231 and 60 µM with HepG2 [3].

For the compound `COc1ccc(CCNC(=O)c2ccc([N+](=O)[O-])s2)cc1OC`, the IC50 in assay [1] was above 10000 nM; in assay [2] it was 86 µM; with MDA-MB-231, above 328 µM; in the assay with HepG2 [3], 80 µM.

For `O=C(/C=C/c1cccnc1)NCCCn1ccnc1`, the IC50 in assay [1] is above 10000 nM; in assay [2] it was above 276 µM; with MDA-MB-231, above 276 µM; with HepG2 [3] it was above 276 µM.

Regarding `COc1ccc(CCNC(=O)CNC(=O)c2sccc2C)cc1OC`, the IC50 is above 10000 nM in assay [1], 196 µM in assay [2], above 328 µM in the assay with MDA-MB-231 and 47 µM with HepG2 [3].

For the compound `O=C(NCCCn1ccnc1)c1cc2ccccc2s1`, the IC50 is 1100 nM in assay [1], 25 µM in assay [2], 36 µM in the assay on MDA-MB-231 and 5.2 µM in the assay with HepG2 [3]. Moreover, the Activity in the assay with HepG2 [4] amounted to 6.75%; in the assay with HepG2 [5] it was 24.42%; with HepG2 [6], 1.88%.

On to `COc1ccc(CCNC(=O)c2cc3ccccc3s2)cc1OC`, for which the figures for the IC50 (in assay [2]; with MDA-MB-231; with HepG2 [3]) were 281 µM, above 293 µM and 82 µM, respectively.

With `COc1ccc(CCNC(=O)c2sccc2C)cc1OC`, the IC50 in assay [1] is 5300 nM; in assay [2] it was 169 µM; in the assay with MDA-MB-231 it was 191 µM; with HepG2 [3] it was 99 µM.

On to `COc1ccc(CCNC(=O)CNC(=O)c2ccc(C)s2)cc1OC`, for which the concentration for half-maximal inhibition (IC50) in assay [1] is 950 nM; in assay [2] it was above 401 µM; in the assay on MDA-MB-231 it was above 401 µM; in the assay on HepG2 [3], above 401 µM.

Turning to `COc1ccc(CCNC(=O)/C=C/c2cccnc2)cc1OC`, the IC50 in assay [1] was above 10000 nM; in assay [2] it was above 401 µM; with MDA-MB-231, above 401 µM; with HepG2 [3], above 401 µM.

Regarding `COc1ccc(CCNC(=O)c2cc3ccccc3o2)cc1OC`, the IC50 in assay [1] was 1400 nM; in assay [2] it was 159 µM; in the assay on MDA-MB-231, above 371 µM; with HepG2 [3] it was 137 µM.

Turning to `O=C(NCCCn1ccnc1)c1cc2ccccc2o1`, the IC50 in assay [1] amounted to 1000 nM; in assay [2] it was 61 µM; with MDA-MB-231 it was 10 µM; with HepG2 [3], 11 µM.

In the case of `Cc1ccc(C(=O)NCCCn2ccnc2)s1`, the half-inhibitory concentration (IC50) was 170 nM in assay [1], above 320 µM in assay [2], above 320 µM with MDA-MB-231 and 3.9 µM with HepG2 [3]. The values for the Activity in the assay on HepG2 [4], with HepG2 [5] and in the assay with HepG2 [6] were 6.62%, 47.51% and 1.03%, respectively.
